What all share (test): DTP human tumour cell line panel, 48 h
The subject of experiment [1] is IGROV1 ovarian.
Experiment [2] has as its system EKVX NSCLC.
Experiment [3] has as its system A549 NSCLC.
Experiment [4] has as its system M14 melanoma.
Experiment [5] concerns HOP-92 NSCLC.
Experiment [6] deals with MALME-3M melanoma.
For experiment [7], the system named is TK-10 renal.
The test system of experiment [8] is COLO 205 colon.
Experiment [9] has as its system A498 renal.
In experiment [10] the test system is HCT-116 colon.

The structures appear in SMILES notation.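 Protocol summary: plate cells (96-well), add compound at 5 concentrations, incubate 48 h, interpolate endpoints linearly. GI50 is the concentration that inhibits growth by half. TGI marks complete inhibition of growth.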 Bounds are passed on as bounds.

With `CC(O)(C(=O)N(O)c1ccc(Cl)cc1)c1ccc(Cl)cc1` (stereo unspecified), the TGI – broadly, the concentration giving total growth inhibition – in experiment [1] was over 100 µM; in [2], over 100 µM; in experiment [3], over 100 µM; in experiment [4], over 100 µM; in experiment [5] it was 48.3 µM; in experiment [6] it was over 100 µM. Further, the TGI in experiment [7] is over 100 µM; in experiment [8], 33 µM; in [9], 71.7 µM; in experiment [10], 96.1 µM.
With `CC(C)(C)c1ccc2c(c1)OCc1n[nH]c(n1)COc1cc(C(C)(C)C)ccc1OCCOCCO2`, the TGI stood at 23.2 µM in experiment [1]; 17.7 µM in experiment [2]; 14.3 µM in [3]; 13.5 µM in experiment [4]; 14.8 µM in [5]; 7.62 µM in experiment [6]. Further, the TGI in experiment [7] turned out to be 8.14 µM; in [8], 12.6 µM; in experiment [9], 21.3 µM; in experiment [10], 15.5 µM.
With `O=c1c(Cc2ccccc2)c(-c2ccccc2)[nH]n1C1=NCCN1`, the TGI in experiment [1], in experiment [2], in experiment [3], in experiment [4], in [5] and in experiment [6] was over 100 µM each time. Further, the TGI was over 100 µM in [7], over 100 µM in [8], over 100 µM in experiment [9] and 66.7 µM in experiment [10].
Take `Cc1cc2c(cc1Cl)SC(NNc1cnc3ccccc3n1)=NS2(=O)=O`: the TGI is over 100 µM in [1]; over 100 µM in [2]; over 100 µM in experiment [3]; over 100 µM in [4]; 77.2 µM in [5]; over 100 µM in [6]. Moreover, the TGI in [7] was over 100 µM; in [8] it was over 100 µM; in experiment [9], 65.7 µM; in [10] it was over 100 µM.
Consider `CN(C)c1nc(=NCc2ccccn2)ss1`, for which the total growth inhibition concentration (TGI) was over 10 µM in experiment [1]; over 10 µM in [2]; over 10 µM in experiment [3]; over 10 µM in [4]; over 10 µM in experiment [5]; over 8.91 µM in experiment [6]. Besides, the TGI in experiment [7], in experiment [8], in [9] and in experiment [10] was over 10 µM in each case.
On to `CCC1(CC)C(=O)NC(=S)N=C1N`, for which the TGI in experiment [1], in experiment [2], in [3], in [4], in experiment [5] and in experiment [6] was over 100 µM in each case. The TGI in experiment [7], in [8], in [9] and in [10] was over 100 µM each time.
Consider `COn1cc(CO)c2ccccc21`, for which the TGI in experiment [1], in experiment [2], in experiment [3], in experiment [4], in experiment [5] and in [6] was over 100 µM each time. In addition, the TGI in experiment [7] was over 46.2 µM; in experiment [8], over 100 µM; in [9] it was 3.67 µM; in experiment [10], over 100 µM.
As for `CC1(C)[C@@H]2C[C@H]1c1cnc(-c3ccccn3)cc1[C@H]2C(O)[C@@H]1c2cc(-c3ccccn3)ncc2[C@H]2C[C@@H]1C2(C)C` (stereo partly specified), the TGI was 6.98 µM in experiment [1]; 13.3 µM in experiment [2]; 18.3 µM in experiment [3]; 1.85 µM in experiment [4]; 21.8 µM in experiment [5]; 21.6 µM in experiment [6]. The TGI in [7] is over 100 µM; in experiment [8], 4.06 µM; in [9], 6.24 µM; in experiment [10], 5.34 µM.
As for `O=CN(O)CC(=O)O`, the TGI in experiment [1], in [2], in experiment [3], in [4], in [5] and in experiment [6] was over 100 µM in each case. The TGI in experiment [7], in experiment [8], in experiment [9] and in experiment [10] was over 100 µM each time.
With `COc1cc2c3c(n(C)c(=O)c2cc1OC)-c1cc2c(cc1/C3=C/CCCCBr)OCO2`, the TGI in experiment [1], in experiment [2], in experiment [3], in [4], in experiment [5] and in experiment [6] was over 100 µM throughout. Besides, the TGI in [7] is over 100 µM; in [8], over 100 µM; in experiment [9] it was 87.4 µM; in experiment [10], over 100 µM. Further, in experiment [10], the GI50 – broadly, the concentration that inhibits growth by half – was 9.47 µM.
For `COC(=O)C(CCSC)NC(=O)CSc1nnc(COc2ccc(Cl)cc2)n1-c1ccccc1` (stereo unspecified), the TGI in [1] was 31.1 µM; in experiment [2] it was 75.3 µM; in experiment [3], over 70.8 µM; in experiment [4], 33.5 µM; in experiment [5], 34.6 µM; in experiment [6], 37.1 µM. The TGI in [7] stood at 33.3 µM; in experiment [8] it was 34.9 µM; in experiment [9], 46.7 µM; in experiment [10], 30.7 µM.

These data come from PubChem BioAssay (NCI).
